Assay results reported in article PMC2980852 (Biochemistry, 2010).

Target: LuxG (Photobacterium leiognathi, UniProt P29237)
Test: stopped-flow NADH fluorescence, amplitude titration
Type: binding

LuxG, sequence (P29237 whole entry): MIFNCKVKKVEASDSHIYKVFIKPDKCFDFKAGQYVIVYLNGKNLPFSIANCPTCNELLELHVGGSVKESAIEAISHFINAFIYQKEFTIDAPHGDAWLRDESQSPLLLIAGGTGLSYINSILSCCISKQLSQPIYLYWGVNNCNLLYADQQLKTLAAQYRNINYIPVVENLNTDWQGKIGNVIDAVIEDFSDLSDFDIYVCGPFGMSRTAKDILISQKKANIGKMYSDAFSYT

Kd: 25 ± 4 µM
Structure (SMILES): NC(=O)C1=CN([C@@H]2O[C@H](COP(=O)(O)OP(=O)(O)OC[C@H]3O[C@@H](n4cnc5c(N)ncnc54)[C@H](O)[C@@H]3O)[C@@H](O)[C@H]2O)C=CC1 [NADH]
